Reference: PubChem BioAssay (NCI)
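Each compound was tested at five concentrations against cells in 96-well plates for 48 hours. GI50 = concentration required for 50% inhibition of growth. TGI denotes the concentration required for complete inhibition of growth.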

Columns and labels:
Test in all cases: NCI-60 cell line screen, 48 h; in the data active = GI50 below about 0.43 µM; inactive = the rest
786-0 renal = tested on: 786-0 renal
A549 NSCLC = tested on: A549 NSCLC
ACHN renal = tested on: ACHN renal
BT-549 breast = tested on: BT-549 breast
CAKI-1 renal = tested on: CAKI-1 renal
CCRF-CEM leukemia = tested on: CCRF-CEM leukemia
COLO 205 colon = tested on: COLO 205 colon
DU-145 prostate = tested on: DU-145 prostate
EKVX NSCLC = tested on: EKVX NSCLC
HCT-116 colon = tested on: HCT-116 colon
HCT-15 colon = tested on: HCT-15 colon
HL-60(TB) leukemia = tested on: HL-60(TB) leukemia
HOP-62 NSCLC = tested on: HOP-62 NSCLC
HOP-92 NSCLC = tested on: HOP-92 NSCLC
HS 578T breast = tested on: HS 578T breast
HT29 colon = tested on: HT29 colon
IGROV1 ovarian = tested on: IGROV1 ovarian
K-562 leukemia = tested on: K-562 leukemia
KM12 colon = tested on: KM12 colon
LOX IMVI melanoma = tested on: LOX IMVI melanoma
M14 melanoma = tested on: M14 melanoma
MALME-3M melanoma = tested on: MALME-3M melanoma
MCF7 breast = tested on: MCF7 breast
MDA-MB-231 breast = tested on: MDA-MB-231 breast
MDA-MB-435 = tested on: MDA-MB-435
MOLT-4 leukemia = tested on: MOLT-4 leukemia
NCI-H226 lung = tested on: NCI-H226 lung
NCI-H23 lung = tested on: NCI-H23 lung
NCI-H460 lung = tested on: NCI-H460 lung
NCI-H522 lung = tested on: NCI-H522 lung
NCI/ADR-RES ovarian = tested on: NCI/ADR-RES ovarian
OVCAR-3 ovarian = tested on: OVCAR-3 ovarian
OVCAR-4 ovarian = tested on: OVCAR-4 ovarian
OVCAR-5 ovarian = tested on: OVCAR-5 ovarian
OVCAR-8 ovarian = tested on: OVCAR-8 ovarian
PC-3 prostate = tested on: PC-3 prostate
RPMI-8226 leukemia = tested on: RPMI-8226 leukemia
RXF 393 renal = tested on: RXF 393 renal
SF-268 CNS = tested on: SF-268 CNS
SF-295 CNS = tested on: SF-295 CNS
SF-539 CNS = tested on: SF-539 CNS
SK-MEL-2 melanoma = tested on: SK-MEL-2 melanoma
SK-MEL-28 melanoma = tested on: SK-MEL-28 melanoma
SK-MEL-5 melanoma = tested on: SK-MEL-5 melanoma
SK-OV-3 ovarian = tested on: SK-OV-3 ovarian
SN12C renal = tested on: SN12C renal
SNB-19 CNS = tested on: SNB-19 CNS
SNB-75 CNS = tested on: SNB-75 CNS
SR leukemia = tested on: SR leukemia
SW-620 colon = tested on: SW-620 colon
T-47D breast = tested on: T-47D breast
U251 CNS = tested on: U251 CNS
UACC-257 melanoma = tested on: UACC-257 melanoma
UACC-62 melanoma = tested on: UACC-62 melanoma
UO-31 renal = tested on: UO-31 renal

CCn1c(-c2cc3ccccc3cc2O)nn(C(=O)c2c(Cl)cccc2Cl)c1=S
40.2 µM: TGI (NCI-H226 lung)
27.4 µM: TGI (786-0 renal)
16.6 µM: TGI (IGROV1 ovarian)
19.7 µM: TGI (SK-MEL-5 melanoma)
21.5 µM: TGI (HS 578T breast)
36.7 µM: TGI (BT-549 breast)
38.7 µM: TGI (HL-60(TB) leukemia)
inactive: GI50 (786-0 renal) 10.8 µM | GI50 (A549 NSCLC) > 50 µM | GI50 (ACHN renal) 16.2 µM | GI50 (BT-549 breast) 15.6 µM | GI50 (CAKI-1 renal) 21.4 µM | GI50 (CCRF-CEM leukemia) 27.1 µM | GI50 (COLO 205 colon) 40.3 µM | GI50 (DU-145 prostate) 41.1 µM | GI50 (EKVX NSCLC) > 50 µM | GI50 (HCT-116 colon) 28.5 µM | GI50 (HCT-15 colon) 16.3 µM | GI50 (HL-60(TB) leukemia) 14.3 µM | GI50 (HOP-62 NSCLC) 24.2 µM | GI50 (HOP-92 NSCLC) > 50 µM | GI50 (HS 578T breast) 8.76 µM | GI50 (HT29 colon) > 50 µM | GI50 (IGROV1 ovarian) 6.63 µM | GI50 (K-562 leukemia) 14.3 µM | GI50 (KM12 colon) > 50 µM | GI50 (LOX IMVI melanoma) > 50 µM | GI50 (M14 melanoma) 7.11 µM | GI50 (MALME-3M melanoma) 30.8 µM | GI50 (MCF7 breast) > 50 µM | GI50 (MDA-MB-231 breast) 44.4 µM | GI50 (MDA-MB-435) > 50 µM | GI50 (MOLT-4 leukemia) 34.6 µM | GI50 (NCI-H226 lung) 14.2 µM | GI50 (NCI-H23 lung) 20.3 µM | GI50 (NCI-H460 lung) > 50 µM | GI50 (NCI-H522 lung) 21.6 µM | GI50 (NCI/ADR-RES ovarian) > 50 µM | GI50 (OVCAR-3 ovarian) 23.7 µM | GI50 (OVCAR-4 ovarian) > 50 µM | GI50 (OVCAR-5 ovarian) > 50 µM | GI50 (OVCAR-8 ovarian) > 50 µM | GI50 (PC-3 prostate) > 50 µM | GI50 (RPMI-8226 leukemia) 13.3 µM | GI50 (RXF 393 renal) 14.5 µM | GI50 (SF-268 CNS) > 50 µM | GI50 (SF-295 CNS) 34.6 µM | GI50 (SF-539 CNS) > 50 µM | GI50 (SK-MEL-2 melanoma) 9.05 µM | GI50 (SK-MEL-28 melanoma) > 50 µM | GI50 (SK-MEL-5 melanoma) 10 µM | GI50 (SK-OV-3 ovarian) 15.4 µM | GI50 (SN12C renal) 23.7 µM | GI50 (SNB-19 CNS) > 50 µM | GI50 (SNB-75 CNS) 42.5 µM | GI50 (SR leukemia) 17.6 µM | GI50 (SW-620 colon) 15.3 µM | GI50 (T-47D breast) 21 µM | GI50 (U251 CNS) 19.5 µM | GI50 (UACC-257 melanoma) > 50 µM | GI50 (UACC-62 melanoma) 17.2 µM | GI50 (UO-31 renal) 10.5 µM
21.9 µM: TGI (M14 melanoma)
> 50 µM: TGI (A549 NSCLC) | TGI (ACHN renal) | TGI (CAKI-1 renal) | TGI (CCRF-CEM leukemia) | TGI (COLO 205 colon) | TGI (DU-145 prostate) | TGI (EKVX NSCLC) | TGI (HCT-116 colon) | TGI (HCT-15 colon) | TGI (HOP-62 NSCLC) | TGI (HOP-92 NSCLC) | TGI (HT29 colon) | TGI (K-562 leukemia) | TGI (KM12 colon) | TGI (LOX IMVI melanoma) | TGI (MALME-3M melanoma) | TGI (MCF7 breast) | TGI (MDA-MB-231 breast) | TGI (MDA-MB-435) | TGI (MOLT-4 leukemia) | TGI (NCI-H23 lung) | TGI (NCI-H460 lung) | TGI (NCI-H522 lung) | TGI (NCI/ADR-RES ovarian) | TGI (OVCAR-3 ovarian) | TGI (OVCAR-4 ovarian) | TGI (OVCAR-5 ovarian) | TGI (OVCAR-8 ovarian) | TGI (PC-3 prostate) | TGI (RXF 393 renal) | TGI (SF-268 CNS) | TGI (SF-295 CNS) | TGI (SF-539 CNS) | TGI (SK-MEL-28 melanoma) | TGI (SN12C renal) | TGI (SNB-19 CNS) | TGI (SNB-75 CNS) | TGI (SR leukemia) | TGI (SW-620 colon) | TGI (T-47D breast) | TGI (U251 CNS) | TGI (UACC-257 melanoma) | TGI (UACC-62 melanoma)
46.1 µM: TGI (RPMI-8226 leukemia)
40 µM: TGI (SK-OV-3 ovarian)
21.1 µM: TGI (SK-MEL-2 melanoma)
24.8 µM: TGI (UO-31 renal)
